Test results from patent US12404260B2, “Pyridine rings containing derivatives as MALT1 inhibitors” (Janssen Pharmaceutica NV, priority 2019, dated 2025).
pIC50: −log10 of the molar value.

System: secretion of IL6 by OCI-LY3 ABC-DLBCL cells
Experiment: Human IL6 Mesoscale assay (OCI-LY3)
Type: cell-based
Conditions: 24 h incubation, IL6 in supernatant
Experimental: (§1) NFKB signaling regulates the secretion of multiple cytokines, including IL6 and IL10. Secretion of the cytokines IL6 and IL10 by OCI-LY3 ABC-DLBCL cells was measured using a mesoscale assay. Inhibition of NFKB signaling by MALT1 inhibitors results in a decrease of IL6/10 secretion.
(§2) OCI-LY3 cells were propagated in RPMI-1640 (Sigma Aldrich) supplemented with 10% fetal bovine serum (HyClone), 1 mM sodium pyruvate (Invitrogen), 2 mM L-glutamine (Sigma Aldrich) and 1% PenStrep (Sigma Aldrich). Cell passage number should not exceed 30. Cells should be kept between 0.5-2.5 million cells per mL during culturing and cells should be supplemented every 2-3 days with fresh 50 μM beta-mercaptoethanol. No beta-mercaptoethanol was used during the mesoscale assay.
(§3) For the Mesoscale assay, 100,000 OCI-LY3 cells were seeded per well into black-colored 96-well plates with clear bottom (Corning #3904) and test compounds were added in 9 dilution steps (1:2) ranging from 15 μM to 58.6 nM (final DMSO concentration 0.3%). DMSO control wells were used to determine the maximum signal (High Control (HC)). Treatment with the BTK inhibitor RN486 in a dose range from 30 nM to […] (9 dilutions of 1:2) served as a positive control for NFKB pathway inhibition and was used to determine the maximum inhibition (Low Control (LC)). Compounds and cells were incubated for 24 h at 37° C. and 5% CO2 (assay volume is 150 μL). After 24 h of incubation 50 μL of the supernatant was transferred to a MSD plate (V-Plex Proinflammation Panel 1 (human) kit, Mesoscale (MSD)) and incubated for 2 h with vigorous shaking (600 rpm) at room temperature. Following incubation, plates were washed 3× with PBS+0.05% Tween-20 and 25 μL detection antibody solution (IL6 & IL10 antibodies in diluent 3 (MSD)) was added per well followed by 2 h of incubation with vigorous shaking (600 rpm) at room temperature. After 3× washes with PBS+0.05% Tween-20, plates were incubated with 150 μL 2× Read Buffer T and read on SECTOR imager.

pIC50 | Structure (SMILES)
5.56 | CO[C@@H](C)c1c(NC(=O)Nc2cnc(-n3nccn3)c(Cl)c2)cnc(N)c1Br [Co. 118]
6.49 | CO[C@H](C)c1c(NC(=O)Nc2cnc(OC(F)F)c(Cl)c2)cnc(C)c1C#N [Co. 71]

Same assay, conditions: Homo sapiens, 24 h incubation, IL6 in supernatant

Structure (SMILES) | pIC50
CC[C@@H](OC)c1c(NC(=O)Nc2cnc(-n3nccn3)c(C(F)(F)F)c2)cnc(C)c1C#N (single isomer, unassigned) [Co. 148] | ~7.22
CNc1ncc(NC(=O)Nc2cnc(-n3nccn3)c(Cl)c2)c([C@H](C)OC)c1Br (single isomer, unassigned) [Co. 153] | 4.93
CO[C@H](c1c(NC(=O)Nc2cnc(-n3nccn3)c(C(F)(F)F)c2)cnc(C)c1Cl)C1CC1 (single isomer, unassigned) [Co. 142] | 5.92
CO[C@@H](C)c1c(NC(=O)Nc2ccnc(C(F)(F)F)c2)cnc(C)c1C#N (single isomer, unassigned) [Co. 149] | 5.72

The next lines start with the values.

pIC50 | Structure (SMILES)
< 4.82 | COc1nc(-n2nccn2)c(C(F)(F)F)cc1NC(=O)Nc1cnc(NC(C)(C)C)c(Br)c1C(C)OC (stereo not drawn) [Co. 151]
7.10 | COc1cncc(NC(=O)Nc2cc(C(F)(F)F)c(-n3nccn3)nc2OC)c1[C@H](C)OC (single isomer, unassigned) [Co. 137]

Target: T1, full-length MALT1 protein (Strep-MALT1(1-824)-His) (Homo sapiens, UniProt Q9UDY8)
T1 construct: full-length MALT1 protein (Strep-MALT1(1-824)-His) purified from baculovirus-infected insect cells; Strep (N); His (C); made in house; host or cells: baculovirus-infected insect cells
T1 sequence (Q9UDY8 1-824): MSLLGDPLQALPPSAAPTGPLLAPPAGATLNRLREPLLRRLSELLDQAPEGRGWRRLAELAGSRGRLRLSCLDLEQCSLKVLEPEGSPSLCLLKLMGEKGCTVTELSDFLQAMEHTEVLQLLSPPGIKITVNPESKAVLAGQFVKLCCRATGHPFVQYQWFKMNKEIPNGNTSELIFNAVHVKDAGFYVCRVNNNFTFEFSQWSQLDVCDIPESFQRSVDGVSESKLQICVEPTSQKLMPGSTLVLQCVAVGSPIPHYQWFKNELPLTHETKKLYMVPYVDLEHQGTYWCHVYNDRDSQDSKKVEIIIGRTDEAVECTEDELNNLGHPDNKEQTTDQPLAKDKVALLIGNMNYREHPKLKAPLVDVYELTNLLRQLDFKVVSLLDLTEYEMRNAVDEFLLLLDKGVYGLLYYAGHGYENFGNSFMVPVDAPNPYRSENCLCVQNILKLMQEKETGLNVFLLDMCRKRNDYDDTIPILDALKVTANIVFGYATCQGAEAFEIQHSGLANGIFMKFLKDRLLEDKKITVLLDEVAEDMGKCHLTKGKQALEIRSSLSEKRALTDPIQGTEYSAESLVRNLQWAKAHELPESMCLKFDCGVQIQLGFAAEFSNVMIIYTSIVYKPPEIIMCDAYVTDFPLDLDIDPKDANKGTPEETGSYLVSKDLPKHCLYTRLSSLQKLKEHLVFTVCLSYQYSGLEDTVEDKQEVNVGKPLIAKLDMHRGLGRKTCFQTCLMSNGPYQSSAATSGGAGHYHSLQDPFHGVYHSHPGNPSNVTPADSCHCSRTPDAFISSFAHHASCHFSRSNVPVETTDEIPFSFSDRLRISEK
Experiment: MALT1 Biochemical Protease Assay
Conditions: 10 nM FL MALT1, 200 μM Ac-LRSR-AMC, 50 min pre-incubation, 4 h at RT; read-out: MALT1_Biochemical activity (Ac-LRSR-amc) IC50
Experimental: MALT1 protease activity was assessed in an in vitro assay using a tetrapeptide as substrate and full-length MALT1 protein (Strep-MALT1(1-824)-His) purified from baculovirus-infected insect cells. The tetrapeptide LRSR is coupled to AMC (7-amino-4-methylcoumarin) and provides a quenched, fluorescent substrate for the MALT1 protease (SM Biochemicals). Cleavage of AMC from the Arginine residue results in an increase in coumarin fluorescence measured at 460 nm (excitation 355 nm). The final assay buffer consisted of 10 nM FL MALT1 protein, 200 μM Ac-LRSR-AMC, 50 mM Tris pH 7.5, 0.6 M Citrate, 1 mM DTT, 1 mM EDTA, 0.05% BSA and 1.5% DMSO. Test compounds were spotted at 50 nL in 100% DMSO per well of a black 384-Proxiplate (Perkin Elmer). Test compound concentrations ranged from 30 μM to 0.5 nM using 11 dilution steps (1:3). Background signal was measured from control wells containing assay buffer without enzyme which functions as low control (LC). High control (HC) values were generated using the reaction with enzyme but no compound treatment. Compounds were pre-incubated with MALT1 enzyme for 50 minutes at RT. Substrate was added subsequently and fluorescence was measured in Labsystems fluoroskan at excitation 355 nm and emission 460 nm to determine time 0. The reaction was subsequently incubated for 4 h at RT and fluorescence was measured. For IC50 calculations, timepoint 0 was subtracted from the 4 h timepoint to correct for any potential autofluorescence of the compounds. The enzyme reaction was linear during the 4 h incubation period. Characterization of the substrate Ac-LRSR-AMC determined the Michaelis constant KM at 200 μM.
IC50 values were calculated using the following formula (Z prime should be >0.5): […]
A best-fit curve was fitted by a minimum sum of squares method to the plot of % Controlmin vs. compound concentration. From this an IC50 value (inhibitory concentration causing 50% inhibition) can be obtained. An estimate of the slope of the plot in terms of the Hill coefficient was also obtained.
Used in “Lexis Dose Response Curve Fitting” Version 1.0.

Structure (SMILES) | pIC50
CC[C@@H](OC)c1c(NC(=O)Nc2cnc(-n3nccn3)c(C(F)(F)F)c2)cnc(C)c1C#N (single isomer, unassigned) [Co. 148] | 7.52
CNc1ncc(NC(=O)Nc2cnc(-n3nccn3)c(Cl)c2)c([C@H](C)OC)c1Br (single isomer, unassigned) [Co. 153] | 4.60
COC(C)c1c(O)cncc1NC(=O)Nc1cnc(-n2nccn2)c(Cl)c1 (stereo not drawn) [Co. 6] | 4.62
CO[C@H](c1c(NC(=O)Nc2cnc(-n3nccn3)c(C(F)(F)F)c2)cnc(C)c1Cl)C1CC1 (single isomer, unassigned) [Co. 142] | 6.10
CO[C@@H](C)c1c(NC(=O)Nc2ccnc(C(F)(F)F)c2)cnc(C)c1C#N (single isomer, unassigned) [Co. 149] | 5.54

Further lines, results first:

pIC50 | Structure (SMILES)
< 4.52 | COc1nc(-n2nccn2)c(C(F)(F)F)cc1NC(=O)Nc1cnc(NC(C)(C)C)c(Br)c1C(C)OC (stereo not drawn) [Co. 151]
7.40 | COc1cncc(NC(=O)Nc2cc(C(F)(F)F)c(-n3nccn3)nc2OC)c1[C@H](C)OC (single isomer, unassigned) [Co. 137]
6.32 | CO[C@@H](C)c1c(NC(=O)Nc2cnc(-n3nccn3)c(Cl)c2)cnc(N)c1Br [Co. 118]

System: secretion of IL10 by OCI-LY3 ABC-DLBCL cells
Experiment: Human IL10 Mesoscale assay (OCI-LY3)
Type: cell-based
Conditions: 24 h incubation, IL10 in supernatant
Experimental: as §1, §2, §3

pIC50 | Structure (SMILES)
5.82 | CO[C@@H](C)c1c(NC(=O)Nc2cnc(-n3nccn3)c(Cl)c2)cnc(N)c1Br [Co. 118]
6.82 | CO[C@H](C)c1c(NC(=O)Nc2cnc(OC(F)F)c(Cl)c2)cnc(C)c1C#N [Co. 71]

Same assay, conditions: Homo sapiens, 24 h incubation, IL10 in supernatant

Structure (SMILES) | pIC50
CC[C@@H](OC)c1c(NC(=O)Nc2cnc(-n3nccn3)c(C(F)(F)F)c2)cnc(C)c1C#N (single isomer, unassigned) [Co. 148] | ~7.22
CNc1ncc(NC(=O)Nc2cnc(-n3nccn3)c(Cl)c2)c([C@H](C)OC)c1Br (single isomer, unassigned) [Co. 153] | 5.06
CO[C@H](c1c(NC(=O)Nc2cnc(-n3nccn3)c(C(F)(F)F)c2)cnc(C)c1Cl)C1CC1 (single isomer, unassigned) [Co. 142] | 6.11
CO[C@@H](C)c1c(NC(=O)Nc2ccnc(C(F)(F)F)c2)cnc(C)c1C#N (single isomer, unassigned) [Co. 149] | 5.88

Now from value to molecule:

pIC50 | Structure (SMILES)
< 4.82 | COc1nc(-n2nccn2)c(C(F)(F)F)cc1NC(=O)Nc1cnc(NC(C)(C)C)c(Br)c1C(C)OC (stereo not drawn) [Co. 151]
7.10 | COc1cncc(NC(=O)Nc2cc(C(F)(F)F)c(-n3nccn3)nc2OC)c1[C@H](C)OC (single isomer, unassigned) [Co. 137]
